Laboratory results published in US20250312462A1, “PAK1 DEGRADERS AND METHODS OF USE THEREOF” (INSTITUTE FOR CANCER RESEARCH D/B/A THE RESEARCH INSTITUTE …, priority 2022, published 2025).

Assays:
[1] = target: CDK4-cyclinD1 (Homo sapiens, UniProt P11802); assay: KINOMEscan; conditions: read-out: Percent Control
Experimental: (§1) The kinase engagement assay (KINOMEscan®) was performed by DiscoverX assessing binding abilities toward a set of kinases.

[2] = target: FGFR3 (Homo sapiens, UniProt P22607); assay: KINOMEscan; conditions: read-out: Percent Control
Experimental: as §1

[3] = target: RET(M918T) (Homo sapiens, UniProt P07949, M918T); assay: KINOMEscan; conditions: read-out: Percent Control
Experimental: as §1

[4] = target: MEK5 (Homo sapiens, UniProt Q13163); assay: KINOMEscan; conditions: read-out: Percent Control
Experimental: as §1

[5] = target: IGF1R (Homo sapiens, UniProt P08069); assay: KINOMEscan; conditions: read-out: Percent Control
Experimental: as §1

[6] = target: T1, CDC2L5 (Homo sapiens, UniProt Q14004); assay: KINOMEscan; format: binding; conditions: read-out: Percent Control
T1 construct: purchased DiscoverX

[7] = target: QSK (Homo sapiens, UniProt Q9Y2K2); assay: KINOMEscan; conditions: read-out: Percent Control
Experimental: as §1

[8] = target: PIK3CD (Homo sapiens, UniProt O00329); assay: KINOMEscan; conditions: read-out: Percent Control
Experimental: as §1

[9] = target: EGFR(L861Q) (Homo sapiens, UniProt P00533, L861Q); assay: KINOMEscan; conditions: read-out: Percent Control
Experimental: as §1

[10] = target: PYK2 (Homo sapiens, UniProt Q14289); assay: KINOMEscan; conditions: read-out: Percent Control
Experimental: as §1

[11] = target: RIPK2 (Homo sapiens, UniProt O43353); assay: KINOMEscan; conditions: read-out: Percent Control
Experimental: as §1

[12] = target: MEK6 (Homo sapiens, UniProt P52564); assay: KINOMEscan; conditions: read-out: Percent Control
Experimental: as §1

[13] = target: EPHA3 (Homo sapiens, UniProt P29320); assay: KINOMEscan; conditions: read-out: Percent Control
Experimental: as §1

[14] = target: YANK3 (Homo sapiens, UniProt Q86UX6); assay: KINOMEscan; conditions: read-out: Percent Control
Experimental: as §1

[15] = target: TNNI3K (Homo sapiens, UniProt Q59H18); assay: KINOMEscan; conditions: read-out: Percent Control
Experimental: as §1

[16] = target: MEK4 (Homo sapiens, UniProt P45985); assay: KINOMEscan; conditions: read-out: Percent Control
Experimental: as §1

[17] = target: TRPM6 (Homo sapiens, UniProt Q9BX84); assay: KINOMEscan; conditions: read-out: Percent Control
Experimental: as §1

[18] = target: FLT1 (Homo sapiens, UniProt P17948); assay: KINOMEscan; conditions: read-out: Percent Control
Experimental: as §1

[19] = target: PIK3C2G (Homo sapiens, UniProt O75747); assay: KINOMEscan; conditions: read-out: Percent Control
Experimental: as §1

[20] = target: CIT (Homo sapiens, UniProt O14578); assay: KINOMEscan; conditions: read-out: Percent Control
Experimental: as §1

[21] = target: CAMK1B (Homo sapiens, UniProt Q6P2M8); assay: KINOMEscan; conditions: read-out: Percent Control
Experimental: as §1

[22] = target: DCAMKL1 (Homo sapiens, UniProt O15075); assay: KINOMEscan; conditions: read-out: Percent Control
Experimental: as §1

[23] = target: WNK3 (Homo sapiens, UniProt Q9BYP7); assay: KINOMEscan; conditions: read-out: Percent Control
Experimental: as §1

[24] = target: ASK2 (Homo sapiens, UniProt O95382); assay: KINOMEscan; conditions: read-out: Percent Control
Experimental: as §1

[25] = target: MAPKAPK2 (Homo sapiens, UniProt P49137); assay: KINOMEscan; conditions: read-out: Percent Control
Experimental: as §1

[26] = test system: ERK; assay: ERK phosphorylation in OVCAR3 and MCF7 cells, immunoblot; format: cell-based; conditions: 10 nM, 24 hours
Experimental: FIG. 3A is a series of Western blots showing OVCAR3 and MCF7 cells that were treated for 24 hours with DMSO, 10 nM BJG-05-039, or NVS-PAK1-1 as indicated. MEK and ERK phosphorylation was assessed by immunoblot with the indicated phosphorylation-specific antibodies. FIG. 3B is a Western blot showing MCF7 cells that were stably transduced with a doxycycline-regulated shRNA against PAK1. shRNA expression was induced by the indicated amounts of doxycycline and immunoblots were performed using cell lysates 24 hours post doxycycline addition. FIG. 3C is a Western blot showing MCF7 cells that were treated with vehicle or […] doxycycline. Immunoblots were performed using cell lysates 24 hours post doxycycline addition.
Cells were washed once in PBS and lysed in RIPA buffer (50 mM Tris-HCl, 150 mM NaCl, 0.25% (w/v) sodium deoxycholate, 1% (w/v) NP-40, pH 7.5) containing protease inhibitor cocktail (Roche) and phosphatase inhibitor cocktail (Roche) for 30 minutes on ice. […]
In certain cell lines, PAK1 has well-characterized functions in regulating proliferative signaling. […] As a readout for anti-PAK activity, phosphorylation of MEK1 at S298 was assessed, a direct target site for Group A PAKs (Coles, et al. (2002) Oncogene 21:2236-2244; Slack-Davis, et al. (2003) J. Cell. Biol., 162:281-291), as well as phosphorylation of the downstream target of MEK, ERK. […]

CIT, sequence (O14578 whole entry): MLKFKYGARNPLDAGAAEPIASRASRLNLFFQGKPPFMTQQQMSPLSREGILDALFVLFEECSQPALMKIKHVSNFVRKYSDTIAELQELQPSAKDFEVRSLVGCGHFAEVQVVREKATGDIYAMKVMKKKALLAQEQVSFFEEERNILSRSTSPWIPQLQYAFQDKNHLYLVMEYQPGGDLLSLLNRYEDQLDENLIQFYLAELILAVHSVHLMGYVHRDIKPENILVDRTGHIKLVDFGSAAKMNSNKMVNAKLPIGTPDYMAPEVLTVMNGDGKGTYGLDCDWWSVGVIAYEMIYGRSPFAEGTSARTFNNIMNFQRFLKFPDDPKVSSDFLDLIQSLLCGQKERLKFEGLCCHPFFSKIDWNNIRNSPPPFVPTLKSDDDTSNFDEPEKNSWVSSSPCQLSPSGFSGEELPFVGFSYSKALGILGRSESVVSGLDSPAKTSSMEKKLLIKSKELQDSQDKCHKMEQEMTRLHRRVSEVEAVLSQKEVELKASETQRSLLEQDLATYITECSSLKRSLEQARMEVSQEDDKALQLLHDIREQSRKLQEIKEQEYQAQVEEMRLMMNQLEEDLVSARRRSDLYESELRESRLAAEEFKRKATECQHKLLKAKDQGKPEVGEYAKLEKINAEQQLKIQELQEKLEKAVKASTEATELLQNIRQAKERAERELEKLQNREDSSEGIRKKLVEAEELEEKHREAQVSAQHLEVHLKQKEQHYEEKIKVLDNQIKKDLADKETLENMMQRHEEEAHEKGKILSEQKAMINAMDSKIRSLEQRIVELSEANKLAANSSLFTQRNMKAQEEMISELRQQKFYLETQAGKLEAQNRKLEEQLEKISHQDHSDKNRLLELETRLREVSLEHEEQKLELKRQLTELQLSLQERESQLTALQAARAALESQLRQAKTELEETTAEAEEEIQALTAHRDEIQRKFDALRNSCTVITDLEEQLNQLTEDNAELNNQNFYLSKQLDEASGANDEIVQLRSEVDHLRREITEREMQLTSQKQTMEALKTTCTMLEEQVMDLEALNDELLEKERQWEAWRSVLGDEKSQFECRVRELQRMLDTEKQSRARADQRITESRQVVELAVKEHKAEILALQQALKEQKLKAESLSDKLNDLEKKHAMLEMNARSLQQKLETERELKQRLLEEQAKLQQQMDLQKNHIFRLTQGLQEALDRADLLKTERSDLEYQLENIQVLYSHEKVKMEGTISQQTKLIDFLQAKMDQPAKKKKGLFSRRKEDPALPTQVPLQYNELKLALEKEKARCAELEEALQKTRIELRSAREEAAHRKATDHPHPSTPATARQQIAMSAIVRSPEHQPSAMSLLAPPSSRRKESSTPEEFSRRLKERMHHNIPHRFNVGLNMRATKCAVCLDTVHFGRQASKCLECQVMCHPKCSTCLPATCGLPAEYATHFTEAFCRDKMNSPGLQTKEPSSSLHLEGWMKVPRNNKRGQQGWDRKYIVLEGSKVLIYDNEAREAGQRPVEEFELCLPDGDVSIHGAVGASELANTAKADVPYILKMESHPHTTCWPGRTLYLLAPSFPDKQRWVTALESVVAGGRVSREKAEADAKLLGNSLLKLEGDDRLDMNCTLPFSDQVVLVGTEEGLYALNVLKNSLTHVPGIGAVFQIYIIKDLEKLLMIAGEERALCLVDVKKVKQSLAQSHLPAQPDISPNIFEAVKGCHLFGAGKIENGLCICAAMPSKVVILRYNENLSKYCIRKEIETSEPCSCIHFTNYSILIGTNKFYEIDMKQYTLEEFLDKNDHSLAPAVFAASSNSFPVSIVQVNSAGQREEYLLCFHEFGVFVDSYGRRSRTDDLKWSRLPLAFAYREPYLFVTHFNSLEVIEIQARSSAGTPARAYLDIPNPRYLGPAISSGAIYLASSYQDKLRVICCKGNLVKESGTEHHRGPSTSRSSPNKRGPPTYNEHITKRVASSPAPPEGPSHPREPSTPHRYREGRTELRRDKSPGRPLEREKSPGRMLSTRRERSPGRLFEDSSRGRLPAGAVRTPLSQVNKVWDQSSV
IGF1R, sequence (P08069 31-1367): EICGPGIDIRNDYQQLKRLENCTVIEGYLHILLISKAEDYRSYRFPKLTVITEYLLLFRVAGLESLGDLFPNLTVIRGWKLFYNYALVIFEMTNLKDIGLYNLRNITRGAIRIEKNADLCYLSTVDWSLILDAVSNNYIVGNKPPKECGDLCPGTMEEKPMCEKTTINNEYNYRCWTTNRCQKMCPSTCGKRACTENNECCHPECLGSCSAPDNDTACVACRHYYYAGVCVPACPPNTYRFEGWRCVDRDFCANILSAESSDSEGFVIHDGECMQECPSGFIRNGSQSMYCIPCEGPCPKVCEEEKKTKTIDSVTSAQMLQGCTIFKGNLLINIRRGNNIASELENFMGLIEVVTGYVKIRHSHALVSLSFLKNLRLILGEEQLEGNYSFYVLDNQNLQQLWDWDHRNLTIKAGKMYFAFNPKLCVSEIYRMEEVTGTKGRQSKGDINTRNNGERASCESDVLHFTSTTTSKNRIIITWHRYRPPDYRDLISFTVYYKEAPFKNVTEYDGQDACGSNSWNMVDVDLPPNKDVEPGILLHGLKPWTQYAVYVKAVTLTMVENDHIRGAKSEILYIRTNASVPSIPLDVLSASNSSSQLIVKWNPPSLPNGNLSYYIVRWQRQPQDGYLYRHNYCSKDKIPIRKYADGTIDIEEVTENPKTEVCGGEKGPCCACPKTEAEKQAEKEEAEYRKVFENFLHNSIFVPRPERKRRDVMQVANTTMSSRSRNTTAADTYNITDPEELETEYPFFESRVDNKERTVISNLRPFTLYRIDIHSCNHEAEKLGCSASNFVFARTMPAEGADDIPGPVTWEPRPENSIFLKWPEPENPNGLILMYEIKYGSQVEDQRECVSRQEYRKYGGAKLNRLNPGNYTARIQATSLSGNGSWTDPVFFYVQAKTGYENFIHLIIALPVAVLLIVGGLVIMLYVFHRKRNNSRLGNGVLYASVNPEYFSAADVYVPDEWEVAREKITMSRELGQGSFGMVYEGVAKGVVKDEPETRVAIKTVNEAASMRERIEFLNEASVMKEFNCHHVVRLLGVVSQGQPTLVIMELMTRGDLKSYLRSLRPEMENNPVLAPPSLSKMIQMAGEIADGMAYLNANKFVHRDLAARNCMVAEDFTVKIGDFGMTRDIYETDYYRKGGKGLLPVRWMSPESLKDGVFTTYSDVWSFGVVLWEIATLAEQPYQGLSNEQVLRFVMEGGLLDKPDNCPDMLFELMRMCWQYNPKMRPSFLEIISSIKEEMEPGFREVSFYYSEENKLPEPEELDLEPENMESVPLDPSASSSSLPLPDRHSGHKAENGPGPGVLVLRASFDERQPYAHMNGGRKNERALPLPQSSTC
DCAMKL1, sequence (O15075 whole entry): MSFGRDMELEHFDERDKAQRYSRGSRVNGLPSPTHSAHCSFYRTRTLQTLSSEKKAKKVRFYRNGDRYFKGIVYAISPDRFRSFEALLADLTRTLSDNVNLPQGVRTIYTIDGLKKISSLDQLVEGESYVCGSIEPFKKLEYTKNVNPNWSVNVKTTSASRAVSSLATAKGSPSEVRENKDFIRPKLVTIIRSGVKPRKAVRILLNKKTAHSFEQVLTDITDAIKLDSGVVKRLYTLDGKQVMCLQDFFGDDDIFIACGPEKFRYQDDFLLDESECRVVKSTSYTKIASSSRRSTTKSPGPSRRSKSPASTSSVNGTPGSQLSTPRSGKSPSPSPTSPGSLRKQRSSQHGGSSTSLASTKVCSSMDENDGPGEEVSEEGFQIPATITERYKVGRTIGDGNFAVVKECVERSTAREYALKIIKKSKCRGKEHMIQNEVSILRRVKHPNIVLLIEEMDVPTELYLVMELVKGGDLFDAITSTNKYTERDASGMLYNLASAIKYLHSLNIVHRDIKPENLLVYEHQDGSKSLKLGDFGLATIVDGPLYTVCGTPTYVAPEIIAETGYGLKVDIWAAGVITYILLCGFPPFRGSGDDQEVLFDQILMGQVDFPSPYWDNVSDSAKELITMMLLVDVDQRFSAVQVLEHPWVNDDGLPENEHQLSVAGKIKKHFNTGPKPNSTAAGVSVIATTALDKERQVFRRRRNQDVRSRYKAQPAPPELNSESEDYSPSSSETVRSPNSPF
YANK3, sequence (Q86UX6 whole entry): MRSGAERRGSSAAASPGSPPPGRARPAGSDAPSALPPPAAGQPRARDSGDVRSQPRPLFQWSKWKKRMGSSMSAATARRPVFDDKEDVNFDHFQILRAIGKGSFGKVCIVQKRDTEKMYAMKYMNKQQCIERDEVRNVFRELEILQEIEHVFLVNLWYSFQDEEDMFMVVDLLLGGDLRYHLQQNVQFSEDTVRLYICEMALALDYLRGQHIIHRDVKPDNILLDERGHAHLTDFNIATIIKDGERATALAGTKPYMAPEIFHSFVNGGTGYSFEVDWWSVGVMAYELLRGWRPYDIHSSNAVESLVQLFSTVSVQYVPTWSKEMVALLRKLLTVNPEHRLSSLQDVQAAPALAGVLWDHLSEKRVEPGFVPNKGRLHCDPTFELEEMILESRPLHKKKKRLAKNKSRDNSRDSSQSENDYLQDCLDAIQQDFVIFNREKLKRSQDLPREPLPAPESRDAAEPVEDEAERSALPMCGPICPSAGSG
MEK6, sequence (P52564 whole entry): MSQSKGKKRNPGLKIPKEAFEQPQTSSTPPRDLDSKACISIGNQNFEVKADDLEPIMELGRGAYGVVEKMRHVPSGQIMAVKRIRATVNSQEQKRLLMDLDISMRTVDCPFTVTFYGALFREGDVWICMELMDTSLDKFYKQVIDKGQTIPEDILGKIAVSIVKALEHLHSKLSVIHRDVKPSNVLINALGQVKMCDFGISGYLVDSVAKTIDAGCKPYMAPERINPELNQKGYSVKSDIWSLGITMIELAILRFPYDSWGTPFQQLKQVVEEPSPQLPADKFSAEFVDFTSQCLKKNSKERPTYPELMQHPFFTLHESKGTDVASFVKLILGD

## O=C1CCC(N2C(=O)c3cccc(NCCCCCCCCNC(=O)N4CC[C@H](NC5=Nc6cc(F)ccc6N(CC(F)F)c6ccc(Cl)cc65)C4)c3C2=O)C(=O)N1 (stereo partly drawn) [BJG-05-039, (3S)-3-((2-Chloro-5-(2,2-difluoroethyl)-8-fluoro-5H-dibenzo[b,e][1,4]diazepin-11-yl)amino)-N-(8-((2-(2,6-dioxopiperidin-3-yl)-1,3-dioxoisoindolin-4-yl)amino)octyl)pyrrolidine-1-carboxamide]
[1]
  remaining binding at 10 µM: 90%
[2]
  remaining binding at 10 µM: 85%
[3]
  remaining binding at 10 µM: 90%
[4]
  remaining binding at 10 µM: 100%
[5]
  remaining binding at 10 µM: 70%
[6]
  remaining binding at 10 µM: 82%
[7]
  remaining binding at 10 µM: 78%
[8]
  remaining binding at 10 µM: 100%
[9]
  remaining binding at 10 µM: 88%
[10]
  remaining binding at 10 µM: 85%
[11]
  remaining binding at 10 µM: 67%
[12]
  remaining binding at 10 µM: 86%
[13]
  remaining binding at 10 µM: 47%
[14]
  remaining binding at 10 µM: 72%
[15]
  remaining binding at 10 µM: 82%
[16]
  remaining binding at 10 µM: 85%
[17]
  remaining binding at 10 µM: 94%
[18]
  remaining binding at 10 µM: 84%
[19]
  remaining binding at 10 µM: 95%
[20]
  remaining binding at 10 µM: 94%
[21]
  remaining binding at 10 µM: 87%
[22]
  remaining binding at 10 µM: 77%
[23]
  remaining binding at 10 µM: 89%
[24]
  remaining binding at 10 µM: 78%
[25]
  remaining binding at 10 µM: 60%
[26]
  Phosphorylation of ERK: inhibiting phosphorylation of ERK
